{"source": "ChEMBL document CHEMBL5154758", "about": "“Structure-Activity Relationship Study of Indolin-5-yl-cyclopropanamine Derivatives as Selective Lysine Specific Demethylase 1 (LSD1) Inhibitors” (J Med Chem, 2022)", "key": {"[1]": {"assay": "Drug metabolism in human liver microsomes assessed as amino dealkylation of parent compound causing M1 metabolite formation at 3 uM incubated for 3 hrs by UPLC/Q-TOF MS analysis", "type": "ADME, Microsome"}, "MV4-11 [2]": {"system": "MV4-11", "assay": "Antiproliferative activity against human MV4-11 cells assessed as inhibition of cell growth incubated for 240 hrs by MTS assay", "type": "functional, cell-based", "conditions": "MV4-11, 240 h"}, "RPMI-8226": {"system": "RPMI-8226", "assay": "Antiproliferative activity against human RPMI-8226 cells assessed as inhibition of cell growth incubated for 240 hrs by MTS assay", "type": "functional, cell-based", "conditions": "RPMI-8226, 240 h"}, "MV4-11 [3]": {"system": "MV4-11", "assay": "Activation of CD86 expression in human MV4-11 cells incubated for 24 hrs by qRT-PCR analysis", "type": "functional, cell-based", "conditions": "MV4-11, 24 h"}, "MV4-11 [4]": {"system": "MV4-11", "assay": "Induction of differentiation of human MV4-11 cells assessed as morphological changes by measuring reduction in nuclear to cytoplasmic ratio at 2.5 uM incubated for 240 hrs by Wright-Giemsa staining based microscopy", "type": "functional, cell-based"}, "[5]": {"assay": "Metabolic stability in mouse hepatocytes at 3 uM incubated for 3 hrs by UPLC/Q-TOF MS analysis", "type": "ADME, cell-based, Hepatocyte"}, "[6]": {"assay": "Metabolic stability in rat hepatocytes at 3 uM incubated for 3 hrs by UPLC/Q-TOF MS analysis", "type": "ADME, cell-based, Hepatocyte"}, "[7]": {"assay": "Metabolic stability in dog hepatocytes at 3 uM incubated for 3 hrs by UPLC/Q-TOF MS analysis", "type": "ADME, cell-based, Canis lupus familiaris, Hepatocyte"}, "[8]": {"assay": "AUC (0 to infinity) in ICR mouse at 20 mg/kg, po measured upto 24 hrs by LC-MS/MS analysis", "type": "ADME, organism-based", "parameters": "dose 20 mg/kg, time < 24 hrs, route po", "conditions": "in vivo"}, "[9]": {"assay": "Cmax in ICR mouse at 20 mg/kg, po measured upto 24 hrs by LC-MS/MS analysis", "type": "ADME, organism-based", "parameters": "time < 24 hrs, dose 20 mg/kg, route po", "conditions": "in vivo"}, "[10]": {"assay": "Half life in ICR mouse at 20 mg/kg, po measured upto 24 hrs by LC-MS/MS analysis", "type": "ADME, organism-based", "conditions": "in vivo"}, "MV4-11 [11]": {"system": "MV4-11", "assay": "In vivo antitumor activity against human MV4-11 cells xenografted in nu/nu mouse assessed as tumor volume at 10 mg/kg, po qd measured on day 1 (reference value: 154 +/- 53 mm3)", "type": "functional", "conditions": "time 1 day"}, "MV4-11 [12]": {"system": "MV4-11", "assay": "In vivo antitumor activity against human MV4-11 cells xenografted in nu/nu mouse assessed as tumor volume at 10 mg/kg, po qd measured on day 15 (reference value: 959 +/- 111 mm3)", "type": "functional", "conditions": "time 15 day"}, "MV4-11 [13]": {"system": "MV4-11", "assay": "In vivo antitumor activity against human MV4-11 cells xenografted in nu/nu mouse assessed as tumor volume at 20 mg/kg, po qd measured on day 1 (reference value: 154 +/- 53 mm3)", "type": "functional", "conditions": "time 1 day"}, "MV4-11 [14]": {"system": "MV4-11", "assay": "In vivo antitumor activity against human MV4-11 cells xenografted in nu/nu mouse assessed as tumor volume at 20 mg/kg, po qd measured on day 15 (reference value: 959 +/- 111 mm3)", "type": "functional", "conditions": "time 15 day"}, "MV4-11 [15]": {"system": "MV4-11", "assay": "In vivo antitumor activity against human MV4-11 cells xenografted in nu/nu mouse assessed as relative tumor volume at 10 mg/kg, po qd measured after 15 days (reference value: 6.85 +/- 1.84 )", "type": "functional", "conditions": "time 15 day"}, "MV4-11 [16]": {"system": "MV4-11", "assay": "In vivo antitumor activity against human MV4-11 cells xenografted in nu/nu mouse assessed as relative tumor volume at 20 mg/kg, po qd measured after 15 days (reference value: 6.85 +/- 1.84 )", "type": "functional", "conditions": "time 15 day"}, "MV4-11 [17]": {"system": "MV4-11", "assay": "In vivo antitumor activity against human MV4-11 cells xenografted in nu/nu mouse assessed as T/C ratio at 10 mg/kg, po qd measured after 15 days relative to control", "type": "functional", "conditions": "time 15 day"}, "MV4-11 [18]": {"system": "MV4-11", "assay": "In vivo antitumor activity against human MV4-11 cells xenografted in nu/nu mouse assessed as T/C ratio at 20 mg/kg,po qd measured after 15 days relative to control", "type": "functional", "conditions": "time 15 day"}, "MV4-11 [19]": {"system": "MV4-11", "assay": "Induction of differentiation of human MV4-11 cells assessed as morphological changes by measuring segmented nucleus at 2.5 uM incubated for 240 hrs by Wright-Giemsa staining based microscopy", "type": "functional, cell-based"}, "[20]": {"assay": "Drug metabolism in monkey liver microsomes assessed as amino dealkylation of parent compound causing M1 metabolite formation at 3 uM incubated for 3 hrs by UPLC/Q-TOF MS analysis", "type": "ADME, Macaca mulatta, Microsome", "conditions": "rhesus monkey"}, "[21]": {"assay": "Drug metabolism in human liver microsomes assessed as N-acetyl M2 metabolite formation at 3 uM incubated for 3 hrs by UPLC/Q-TOF MS analysis", "type": "ADME, Microsome"}, "[22]": {"assay": "Drug metabolism in monkey liver microsomes assessed as N-acetyl M2 metabolite formation at 3 uM incubated for 3 hrs by UPLC/Q-TOF MS analysis", "type": "ADME, Macaca mulatta, Microsome", "conditions": "rhesus monkey"}, "[23]": {"molecular_target": "T1, Amine oxidase [flavin-containing] A (Homo sapiens, UniProt P21397)", "T1 sequence (P21397 whole entry)": "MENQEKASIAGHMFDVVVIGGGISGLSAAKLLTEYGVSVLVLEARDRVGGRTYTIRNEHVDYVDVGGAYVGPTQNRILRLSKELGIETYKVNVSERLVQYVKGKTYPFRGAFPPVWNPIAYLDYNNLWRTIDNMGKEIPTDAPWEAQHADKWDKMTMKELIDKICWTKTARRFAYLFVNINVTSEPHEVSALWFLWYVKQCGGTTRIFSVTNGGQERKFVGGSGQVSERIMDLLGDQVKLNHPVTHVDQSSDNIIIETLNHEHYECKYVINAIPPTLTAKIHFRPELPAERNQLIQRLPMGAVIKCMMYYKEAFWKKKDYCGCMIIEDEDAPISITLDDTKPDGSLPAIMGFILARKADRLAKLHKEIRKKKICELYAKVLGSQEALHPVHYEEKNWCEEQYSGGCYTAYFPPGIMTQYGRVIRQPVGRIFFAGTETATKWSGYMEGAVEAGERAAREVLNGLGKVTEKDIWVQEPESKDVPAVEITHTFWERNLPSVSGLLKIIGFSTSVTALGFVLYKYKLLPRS", "assay": "biochemical", "description": "Inhibition of human recombinant MAO-A expressed in baculovirus infected BTI insect cells using luminogenic MAO substrate incubated for 1 hr by luciferin-based luminescence assay"}, "[24]": {"molecular_target": "T2, Amine oxidase [flavin-containing] B (Homo sapiens, UniProt P27338)", "T2 sequence (P27338 whole entry)": "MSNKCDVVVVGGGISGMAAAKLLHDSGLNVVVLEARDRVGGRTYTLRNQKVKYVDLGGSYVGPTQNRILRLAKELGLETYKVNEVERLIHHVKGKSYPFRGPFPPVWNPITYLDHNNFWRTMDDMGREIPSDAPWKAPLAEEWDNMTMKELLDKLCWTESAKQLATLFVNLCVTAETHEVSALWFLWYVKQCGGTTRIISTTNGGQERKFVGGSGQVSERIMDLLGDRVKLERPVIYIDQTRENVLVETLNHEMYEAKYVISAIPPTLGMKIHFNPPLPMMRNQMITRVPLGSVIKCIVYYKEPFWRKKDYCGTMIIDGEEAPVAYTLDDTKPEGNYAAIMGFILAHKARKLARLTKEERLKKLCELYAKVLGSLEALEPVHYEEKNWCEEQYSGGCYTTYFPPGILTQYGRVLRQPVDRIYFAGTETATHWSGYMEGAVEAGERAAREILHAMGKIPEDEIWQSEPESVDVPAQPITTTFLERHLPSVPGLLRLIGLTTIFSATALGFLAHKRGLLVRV", "assay": "biochemical", "description": "Inhibition of human recombinant MAO-B expressed in baculovirus infected BTI insect cells using luminogenic MAO substrate incubated for 1 hr by luciferin-based luminescence assay"}}, "note": "pEC50, pIC50: −log10 of the molar value. Calls of active or inactive are those of the source. No cut-off for these calls is given here.", "data": [{"compound": "O=S(=O)(c1ccccc1)N1CCc2cc(C3CC3NCC3CCNCC3)ccc21", "note": "(stereo not given)", "values": [{"measurement": "Drug metabolism", "setting": "[1]", "value": "Metabolite_Detected"}, {"measurement": "pIC50", "setting": "MV4-11 [2]", "value": 5.87}, {"measurement": "pIC50", "setting": "RPMI-8226", "value": "< 4.70"}, {"measurement": "pEC50", "setting": "MV4-11 [3]", "value": 6.33}, {"measurement": "Activity", "setting": "MV4-11 [4]", "value": "Active"}, {"measurement": "Stability", "setting": "[5]", "value": "Stable"}, {"measurement": "Stability", "setting": "[6]", "value": "Stable"}, {"measurement": "Stability", "setting": "[7]", "value": "Stable"}, {"measurement": "AUC", "setting": "[8]", "value": 619, "unit": "ng·h/mL"}, {"measurement": "Cmax", "setting": "[9]", "value": 85.7, "unit": "ng/mL"}, {"measurement": "half-life", "setting": "[10]", "value": 5.32, "unit": "h"}, {"measurement": "Activity", "setting": "MV4-11 [11]", "value": 156, "unit": "mm3"}, {"measurement": "Activity", "setting": "MV4-11 [12]", "value": 522, "unit": "mm3"}, {"measurement": "Activity", "setting": "MV4-11 [13]", "value": 157, "unit": "mm3"}, {"measurement": "Activity", "setting": "MV4-11 [14]", "value": 334, "unit": "mm3"}, {"measurement": "Activity", "setting": "MV4-11 [15]", "value": 3.58}, {"measurement": "Activity", "setting": "MV4-11 [16]", "value": 2.12}, {"measurement": "Activity", "setting": "MV4-11 [17]", "value": 52.29, "unit": "%"}, {"measurement": "Activity", "setting": "MV4-11 [18]", "value": 30.89, "unit": "%"}, {"measurement": "Activity", "setting": "MV4-11 [19]", "value": "Active"}, {"measurement": "Drug metabolism", "setting": "[20]", "value": "Metabolite_Detected"}, {"measurement": "Drug metabolism", "setting": "[21]", "value": "Metabolite_Detected"}, {"measurement": "Drug metabolism", "setting": "[22]", "value": "Metabolite_Detected"}, {"measurement": "pIC50", "setting": "[23]", "value": "< 4.00"}, {"measurement": "pIC50", "setting": "[24]", "value": "< 4.00"}]}]}
